Drawing on ChEMBL document CHEMBL5325442, “Diterpenoids and Their Glycosides from the Stems of Tinospora crispa with Beta-Cell Protective Activity” (2023), this text covers Activity for 19 molecules.

Format in all cases: functional
Assay [1] relates to BRIN-BD11. The assay can be described thus: Protection against dexamethasone-induced cytotoxicity in rat BRIN-BD11 cells assessed as increase in cell viability incubated for 48 hrs by WST-1 reagent based assay. Conditions: dose <= 50.0 µM. A general note: Formazan colour is commonly taken as a measure of viable cells.
The test system of assay [2] is BRIN-BD11. The assay can be described thus: Protection against dexamethasone-induced cytotoxicity in rat BRIN-BD11 cells assessed as increase in cell viability at 50 uM incubated for 48 hrs by WST-1 reagent based assay.
In assay [3] the test system is BRIN-BD11. The assay can be described thus: Protection against dexamethasone-induced cytotoxicity in rat BRIN-BD11 cells assessed as increase in cell viability at 400 uM incubated for 48 hrs by WST-1 reagent based assay.
Assay [4] deals with BRIN-BD11. The assay can be described thus: Protection against dexamethasone-induced cell cycle arrest in rat BRIN-BD11 cells assessed as restoration of dexamethasone-induced increase in G1 phase cells at 50 uM incubated for 48 hrs by RNase A staining based FACS analysis.
In assay [5] the test system is BRIN-BD11. The assay is described as follows: Protection against dexamethasone-induced cell cycle arrest in rat BRIN-BD11 cells assessed as restoration of dexamethasone-induced decrease in S phase cells at 50 uM incubated for 48 hrs by RNase A staining based FACS analysis.
Assay [6] has as its system BRIN-BD11. The assay is described as follows: Protection against dexamethasone-induced cell cycle arrest in rat BRIN-BD11 cells assessed as restoration of dexamethasone-induced decrease in G2/M phase cells at 50 uM incubated for 48 hrs by RNase A staining based FACS analysis. For orientation: In flow cytometry, cells or beads pass a laser one at a time.

Calls of active or inactive are those of the source. No cut-off for these calls is given here.

On to `C[C@@]12C[C@@H](c3ccoc3)OC(=O)[C@@H]1C[C@@H](O[C@@H]1O[C@H](CO)[C@@H](O)[C@H](O)[C@H]1O)[C@@]13COC(=O)C1=CCC[C@@H]23`, for which the result with BRIN-BD11 [1] was Active.

Regarding `COC(=O)C1=CCC[C@H]2[C@]3(C)C[C@@H](c4ccoc4)OC(=O)C3=CC(O[C@@H]3O[C@H](CO)[C@@H](O)[C@H](O)[C@H]3O)[C@@]12C` (some centres not stated), the outcome with BRIN-BD11 [1] was Active.

For `C[C@@]12C[C@@H](c3ccoc3)OC(=O)[C@@H]1C[C@@H]1OC(=O)[C@@]3(O)[C@@H](O[C@@H]4O[C@H](CO)[C@@H](O)[C@H](O)[C@H]4O)CC[C@@H]2[C@@]13C`, the result with BRIN-BD11 [1] was Active.

Turning to `COC(=O)C1=CCC[C@@H]2[C@](C)(CC(O[C@@H]3O[C@H](CO)[C@@H](O)[C@H](O)[C@H]3O)C3=CC(O)OC3=O)[C@H]3C[C@H](OC3=O)[C@]12C` (some centres not stated), in the assay with BRIN-BD11 [1], the outcome was Active.

As for `COC(=O)C1=CCC[C@H]2[C@]3(C)C[C@@H](C4=C[C@H](OC)OC4=O)OC(=O)[C@@H]3CC(O[C@@H]3O[C@H](CO)[C@@H](O)[C@H](O)[C@H]3O)[C@@]12C` (some centres not stated), the outcome in the assay on BRIN-BD11 [1] was Active.

`C[C@@]1(CC(=O)O)[C@@H](C(=O)O)C[C@H]2OC(=O)C3=CCC[C@@H]1[C@]32C`: in the assay on BRIN-BD11 [2], the result was inactive.

Take `CCCCNC(=O)NS(=O)(=O)c1ccc(C)cc1`: the result with BRIN-BD11 [3] was Active.

`COC(=O)C1=CCC[C@H]2[C@]3(C)C[C@@H](c4ccoc4)OC(=O)[C@@H]3C[C@H](O[C@@H]3O[C@H](CO)[C@@H](O)[C@H](O)[C@H]3O)[C@@]12C`: the Activity entry with BRIN-BD11 [1] is “Dose-Dependent Effect”. Besides, the result in the assay with BRIN-BD11 [4], with BRIN-BD11 [5] and with BRIN-BD11 [6] was inactive.

As for `COC(=O)C1=CCC[C@@H]2[C@](C)(CC(O[C@@H]3O[C@H](CO[C@@H]4O[C@H](CO)[C@@H](O)[C@H](O)[C@H]4O)[C@@H](O)[C@H](O)[C@H]3O)C3=CC(OC)OC3=O)[C@H]3C[C@H](OC3=O)[C@]12C` (some centres not stated), the outcome in the assay with BRIN-BD11 [2] was Active. In addition, the outcome in the assay on BRIN-BD11 [4], in the assay on BRIN-BD11 [5] and in the assay with BRIN-BD11 [6] was inactive.

In the case of `COC(=O)C1=CCC[C@H]2[C@](C)(C[C@H](O[C@@H]3O[C@H](CO)[C@@H](O)[C@H](O)[C@H]3O)[C@@]3(O)[C@H](OC)O[C@H](OC)[C@H]3O)[C@H]3C[C@H](OC3=O)[C@@]12C`, the outcome with BRIN-BD11 [2] was inactive.

For `COC(=O)C1=C[C@H](O)C[C@@H]2[C@@]1(C)[C@@H](O[C@@H]1O[C@H](CO)[C@@H](O)[C@H](O)[C@H]1O)C=C1C(=O)O[C@H](c3ccoc3)C[C@]12C`, in the assay on BRIN-BD11 [2], the result was Active. Besides, in the assay with BRIN-BD11 [1], the Activity entry was “Dose-Dependent Effect”. Besides, the result in the assay with BRIN-BD11 [4], in the assay on BRIN-BD11 [5] and in the assay with BRIN-BD11 [6] was inactive.

In the case of `COC(=O)C1=CCC[C@H]2[C@](C)(CC(O[C@@H]3O[C@H](CO)[C@@H](O)[C@H](O)[C@H]3O)c3ccoc3)[C@H]3C[C@H](OC3=O)[C@@]12C` (some centres not stated), in the assay with BRIN-BD11 [2], the outcome was Active. Besides, the Activity entry with BRIN-BD11 [1] is “Dose-Dependent Effect”. The outcome in the assay with BRIN-BD11 [4], in the assay on BRIN-BD11 [5] and in the assay with BRIN-BD11 [6] was inactive.

For `COC(=O)C1=C[C@H](O)C[C@H]2[C@]3(C)C[C@@H](c4ccoc4)OC(=O)[C@@H]3C[C@@H](O[C@@H]3O[C@H](CO)[C@@H](O)[C@H](O)[C@H]3O)[C@@]12C`, the result with BRIN-BD11 [1] was Active.

`COC(=O)C1=C[C@H](O)C[C@H]2[C@]3(C)C[C@@H](c4ccoc4)OC(=O)[C@H]3C[C@H](O[C@@H]3O[C@H](CO)[C@@H](O)[C@H](O)[C@H]3O)[C@@]12C`: in the assay with BRIN-BD11 [1], the outcome was Active.

Regarding `COC(=O)C1=C[C@H](O)C[C@H]2[C@](C)(C[C@H](O[C@@H]3O[C@H](CO)[C@@H](O)[C@H](O)[C@H]3O)c3ccoc3)[C@H]3C[C@H](OC3=O)[C@@]12C`, the result with BRIN-BD11 [2] was Active. The Activity entry in the assay with BRIN-BD11 [1] was “Dose-Dependent Effect”. In addition, the outcome in the assay with BRIN-BD11 [4], in the assay with BRIN-BD11 [5] and in the assay on BRIN-BD11 [6] was inactive.

In the case of `COC(=O)C1=CCC[C@H]2[C@]3(C)C[C@@H](C4=CC(=O)OC4O)OC(=O)[C@@H]3C[C@@H](O[C@@H]3O[C@H](CO)[C@@H](O)[C@H](O)[C@H]3O)[C@@]12C` (some centres not stated), the result with BRIN-BD11 [2] was Active. For the same molecule, the result in the assay on BRIN-BD11 [4], in the assay on BRIN-BD11 [5] and with BRIN-BD11 [6] was inactive.

In the case of `C[C@]12C[C@@H](c3ccoc3)OC(=O)[C@H]1CC[C@]1(C)[C@H]2[C@H]2C=C[C@]1(O[C@@H]1O[C@H](CO)[C@@H](O)[C@H](O)[C@H]1O)C(=O)O2`, the outcome with BRIN-BD11 [2] was Active. Further, in the assay with BRIN-BD11 [1], the Activity result is “Dose-Dependent Effect”. Further, the result in the assay on BRIN-BD11 [4], in the assay with BRIN-BD11 [5] and in the assay with BRIN-BD11 [6] was inactive.

Take `COC(=O)C1=CCC[C@H]2[C@]3(C)C[C@@H](C4=CC(O)OC4=O)OC(=O)[C@@H]3C[C@@H](O[C@@H]3O[C@H](CO)[C@@H](O)[C@H](O)[C@H]3O)[C@@]12C` (some centres not stated): the result in the assay on BRIN-BD11 [2] was Active.

For `COC(=O)C1=CCC[C@H]2[C@](C)(C[C@@H](O[C@@H]3O[C@H](CO[C@@H]4O[C@H](CO)[C@@H](O)[C@H](O)[C@H]4O)[C@@H](O)[C@H](O)[C@H]3O)c3ccoc3)[C@H]3C[C@H](OC3=O)[C@@]12C`, the outcome with BRIN-BD11 [2] was Active. In addition, the outcome with BRIN-BD11 [4], in the assay on BRIN-BD11 [5] and in the assay with BRIN-BD11 [6] was inactive.
